US20070270436A1, “NOVEL AMINO- AND IMINO-ALKYLPIPERAZINES” (Recordati Ireland Limited, priority 2006, published 2007)
Read-outs that look alike come from different tables or passages of the source.

What was measured:
[1] = molecular target: T1, human 5HT1A-serotonergic receptor (Homo sapiens, UniProt P08908); assay: Radioligand binding to recombinant 5-HT1A receptor ([3H]8-OH-DPAT, HeLa cell membranes); details: 1 nM [3H]8-OH-DPAT; Ki from IC50 by the Cheng equation; read-out: Ki (nM), binding affinity for 5HT1A receptor
T1 construct: expressed in transfected cells; host or cells: HeLa (human), stably transfected; membranes
T1 sequence (P08908 1-422): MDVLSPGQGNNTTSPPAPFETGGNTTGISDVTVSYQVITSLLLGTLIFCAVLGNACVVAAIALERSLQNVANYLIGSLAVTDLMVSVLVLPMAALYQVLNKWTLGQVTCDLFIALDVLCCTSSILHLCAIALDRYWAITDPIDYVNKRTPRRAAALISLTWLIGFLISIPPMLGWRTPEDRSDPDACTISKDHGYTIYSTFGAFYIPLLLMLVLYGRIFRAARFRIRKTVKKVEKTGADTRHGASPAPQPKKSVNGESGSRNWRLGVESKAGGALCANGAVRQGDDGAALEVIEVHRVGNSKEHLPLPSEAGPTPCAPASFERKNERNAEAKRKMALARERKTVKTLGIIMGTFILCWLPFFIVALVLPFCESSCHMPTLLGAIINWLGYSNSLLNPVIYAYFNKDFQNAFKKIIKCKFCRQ
Experimental: Genomic clone G-21 encoding the human 5HT1A-serotonergic receptor was stably transfected in a human cell line (HeLa). HeLa cells were grown as monolayers in Dulbecco's modified Eagle medium (DMEM), containing 10% fetal bovine serum and gentamycin (100 μg/ml) at 37° C. in a humidified atmosphere of 5% CO2 and air. The cells were detached from the growth flask at 95% confluence by a cell scraper and were lysed in cold 5 mM Tris and 5 mM EDTA buffer (pH 7.4). The homogenates were centrifuged at 40000×g×20 minutes and the pellets were resuspended in a small volume of cold 5 mM Tris and 5 mM EDTA buffer (pH 7.4) and immediately frozen and stored at −70° C. until use. On the day of experiment, the cell membranes were resuspended in incubation buffer: 50 mM Tris (pH 7.4), 2.5 mM MgCl2, 10 μM pargyline (Fargin et al., Nature 335, 358-360, 1988). The membranes were incubated in a final volume of 0.32 ml for 30 minutes at 30° C. with 1 nM [^3H]8-OH-DPAT, in the absence or presence of the test compounds. Non-specific binding was determined in the presence of 10 μM 5-HT. Incubation was stopped by addition of cold Tris buffer and rapid filtration through UniFilter GF/C plate.
The affinity of the tested compounds was evaluated as inhibition of specific binding of the radioligand to 5-HT1A receptor (IC50) by using the non-linear curve-fitting program Allfit (De Lean et al., Am. J. Physiol. 235, E97-E102 (1978)). The IC50 value was converted to an affinity constant (Ki) by the equation of Cheng et al., Biochem. Pharmacol. 22, 3099-3108 (1973).

5-HT1A receptors = molecular target: T2, 5-HT1A receptors (Rattus norvegicus, UniProt P19327); assay: Inhibition of serotonergic syndrome (forepaw treading) induced by 8-OH-DPAT in rats (post-synaptic antagonism); assay type: in vivo; details: rat, 10 mg/kg p.o.
T2 construct: from tissue; host or cells: living male Sprague-Dawley rats (whole animal, behavioural read-out)
T2 sequence (P19327 1-422): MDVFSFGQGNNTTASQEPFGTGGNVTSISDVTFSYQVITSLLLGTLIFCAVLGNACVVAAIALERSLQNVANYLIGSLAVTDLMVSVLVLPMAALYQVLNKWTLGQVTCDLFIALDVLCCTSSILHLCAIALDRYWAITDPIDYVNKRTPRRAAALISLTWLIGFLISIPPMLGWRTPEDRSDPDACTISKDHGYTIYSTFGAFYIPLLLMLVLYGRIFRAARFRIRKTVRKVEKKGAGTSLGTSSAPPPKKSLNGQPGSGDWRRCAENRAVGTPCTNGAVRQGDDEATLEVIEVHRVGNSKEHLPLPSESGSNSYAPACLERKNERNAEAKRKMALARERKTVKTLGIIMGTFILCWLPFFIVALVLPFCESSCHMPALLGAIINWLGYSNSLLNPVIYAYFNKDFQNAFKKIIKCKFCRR
Experimental: The inhibitory effect of 5-HT1A-receptor antagonists on stereotyped forepaw treading induced in rats by subcutaneous injection of 8-OH-DPAT was evaluated by the method of Tricklebank (Tricklebank et al., Eur. J. Pharmacol., 117: 15, 1985) with minor modifications as described below.
Male Sprague-Dawley rats [Crl: CD® (SD) IGS BR] weighing 150-175 g from Charles River Italia were used. The animals were housed with free access to food and water and maintained on a forced 12-hour-light/12-hour-dark cycle at 22-24° C. of temperature. On the day of the experiment, the rats were placed singly in clear plastic containers, 10-15 minutes before oral administration of the vehicle or compounds to be tested. For evaluation of antagonistic activity, the compounds were administered 1 and 4 hours before induction of stereotypy by 8-OH-DPAT (1 mg/kg subcutaneously). Observation sessions lasted 30 seconds and began 3 minutes after 8-OH-DPAT treatment and were repeated every 3 minutes over a period of 15 minutes.
The appearance of the symptoms induced by postsynaptic stimulation of 5-HT1A receptors was noted, and the intensity was scored using an intensity scale in which: 0=absent, 1=equivocal, 2=present and 3=intense. Behavioural scores for treated rats were accumulated throughout the observation time (5 observation periods) and expressed as mean values of 4 rats/dose. Change in mean values of treated animals in comparison with control (vehicle) group, expressed as per-cent inhibition, was used to quantify the antagonistic activity.
In order to quantitate the potency of the compound of Example 24 in inhibiting the stereotypy (forepaw treading) induced by 8-OH-DPAT, an ED50 value (dose inhibiting by 50% the forepaw treading) was evaluated by means of linear regression using the least square method.

[2] = 1 h before 8-OH-DPAT 1 mg/kg s.c., read-out: % Inhibition of forepaw treading, 1 h
[3] = 4 h before 8-OH-DPAT 1 mg/kg s.c., read-out: % Inhibition of forepaw treading, 4 h

Ki [1] [nM] | inhibition at 10 mg/kg (5-HT1A receptors; [2]) [%] | inhibition at 10 mg/kg (5-HT1A receptors; [3]) [%] | Compound
0.16 | 71 | – | COc1ccccc1N1CCN(CCC(C(=NO)C2CCCCC2)c2ccccc2F)CC1 (mixture of isomers) [Example 1, 1-Cyclohexyl-2-(2-fluorophenyl)-4-[4-(2-methoxyphenyl)-piperazin-1-yl]butan-1-one oxime]
0.88 | 86 | 68 | CONC(C1CCCCC1)C(CCN1CCN(c2ccccc2OC)CC1)c1ccccc1F (mixture of isomers) [Example 4, N-{1-Cyclohexyl-2-(2-fluorophenyl)-4-[4-(2-methoxyphenyl)piperazin-1-yl]butyl}-O-methylhydroxylamine]
– | 71 | 67 | CON[C@H](C1CCCCC1)[C@H](CCN1CCN(c2ccccc2OC)CC1)c1ccccc1F (racemic) [Example 4b, (RS,RS)-N-{1-Cyclohexyl-2-(2-fluorophenyl)-4-[4-(2-methoxyphenyl)piperazin-1-yl]butyl}-O-methylhydroxylamine]
1 | 56 | 56 | COc1ccccc1N1CCN(CC[C@@H](c2ccccc2F)[C@@H](C2CCCCC2)N(C)C)CC1 (racemic) [Example 11, {(RS,SR)-1-Cyclohexyl-2-(2-fluorophenyl)-4-[4-(2-methoxyphenyl)-piperazin-1-yl]butyl}dimethylamine]
2.1 | 94 | 65 | COc1ccccc1N1CCN(CC[C@@H](c2ccccc2F)[C@H](NC(=O)N(C)C)C2CCCCC2)CC1 (racemic) [Example 21, 3-{(RS,SR)-1-Cyclohexyl-2-(2-fluorophenyl)-4-[4-(2-methoxyphenyl)-piperazin-1-yl]butyl}-1,1-dimethylurea]
1.1 | – | – | COc1ccc(Br)c(CN2CCN(CCC(c3ccccc3F)C(NC(C)=O)C3CCCCC3)CC2)c1 (stereo not drawn) [Example 45, N-[4-[4-(2-Bromo-5-methoxybenzyl)piperazin-1-yl]-1-cyclohexyl-2-(2-fluoro-phenyl)butyl]acetamide]
0.8 | – | – | COc1ccc(Br)c(CN2CCN(CCC(c3ccccc3F)C(C3CCCCC3)N(C)C(C)=O)CC2)c1 (stereo not drawn) [Example 46, N-[4-[4-(2-Bromo-5-methoxybenzyl)piperazin-1-yl]-1-cyclohexyl-2-(2-fluorophenyl)butyl]-N-methylacetamide]
0.8 | – | – | O=CNC(C1CCCCC1)C(CCN1CCN(c2cccc3[nH]cnc23)CC1)c1ccccc1F (stereo not drawn) [Example 47, N-[4-[4-(1H-Benzimidazol-4-yl)piperazin-1-yl]-1-cyclohexyl-2-(2-fluoro-phenyl)butyl]formamide]
0.3 | – | – | NC(C1CCCCC1)C(CCN1CCN(c2cccc3[nH]cnc23)CC1)c1ccccc1F (stereo not drawn) [Example 48, 4-[4-(1H-Benzimidazol-4-yl)piperazin-1-yl]-1-cyclohexyl-2-(2-fluorophenyl)butylamine]
2.3 | – | – | O=CNC(C1CCCCC1)C(CCN1CCN(c2cccc3[nH]ccc23)CC1)c1ccccc1F (stereo not drawn) [Example 52, N-{1-Cyclohexyl-2-(2-fluorophenyl)-4-[4-(1H-indol-4-yl)piperazin-1-yl]butyl}formamide]
